In US5696112A, “Fused heterocyclic azepines as vasopressin antagonists” (American Cyanamid Company, priority 1995, dated 1997):

Experiments:
[1] = target: T1, Rat Kidney Medullary V2 Receptors (vasopressin V2) (Rattus norvegicus, UniProt Q00788); assay: Binding Assay to Rat Kidney Medullary V2 Receptors; settings: rat kidney medullary V2, [3H]Arg8-vasopressin
T1 construct: Medullary tissues from rat kidneys are dissected out; from tissue; host or cells: rat kidney medulla membranes
Procedure: Binding Assay to Rat Kidney Medullary V2 Receptors
Medullary tissues from rat kidneys are dissected out, cut into small pieces and let soak in a […] sodium chloride solution containing 1.0 mM EDTA with many changes of the liquid phase, until the solution is clear of blood. The tissue is homogenized in a 0.25M sucrose solution containing 1.0 mM EDTA and 0.1 mM PMSF using a Potter-Elvehjem homogenizer with a teflon pestle. The homogenate is filtered through several layers (4 layers) of cheese cloth. The filtrate is rehomogenized using a dounce homogenizer, with a tight fitting pestle. The final homogenate is contrifuged at 1500×g for 15 min. The nuclear pellet is discarded and the supernatant fluid recentrifuged at 40,000×g for 30 min. The resulting pellet formed contains a dark inner part with the exterior, slightly pink. The pink outer part is suspended in a small amount of 50.0 mMTris.HCl buffer, pH 7.4. The protein content is determined by the Lowry's method (Lowry et al, J. Biol. Chem., 1953). The membrane suspension is stored at -70° C., in 50.0 mMTris.HCl, containing 0.2% inactivated BSA and 0.1 mM PMSF in aliquots of 1.0 ml containing 10.0 mg protein per ml of suspension until use in subsequent binding experiments.
For binding experiments, the following is added in μl volume to wells of a 96 well format of a microtiter plate: 100.0 μl of 100.0 mM Tris.HCl buffer containing 0.2% heat inactivated BSA, 10.0 mM MgCl2 and a mixture of protease inhibitors: leupeptin, 1.0 mg %; aprotinin, 1.0 mg %; 1,10-phenanthroline, 2.0 mg %; trypsin inhibitor, 10.0 mg % and 0.1 mM PMSF, 20.0 μl of [^3 H]Arginine^8, vasopressin (S.A. 75.0 Ci/mmole) at 0.8 nM and the reaction initiated by the addition of 80.0 μl of tissue membranes (200.0 μg tissue protein). The plates are left undisturbed on the bench top for 120 min. to reach equilibrium. Non-specific binding is assessed in the presence of 1.0 μM of unlabeled ligand, added in 20 μl volume. For test compounds, these are solubilized in 50% dimethylsulfoxide (DMSO) and added in 20.0 μl volume to a final incubation volume of 200 μl. Upon completion of binding, the content of each well is filtered off, using a Brandel® cell Harvester (Gaithersburg, Md.). The radioactivity trapped on the filter disk by the ligand-receptor complex is assessed by liquid scintillation counting in a Packard LS Counter, with an efficiency of 65% for tritium. The data are analyzed for IC50 values by the LUNDON-2 program for competition (LUNDON SOFTWARE, OH).

oxytocin receptors = target: T2, oxytocin receptors (Rattus norvegicus, UniProt P70536); assay: Oxytocin Receptor Binding; set-up: species or system Sprague-Dawley rats; settings: 10 μM
T2 construct: The uteri are dissected out, cleaned of fat and connective tissues; from tissue; host or cells: uterus membranes of DES-treated female Sprague-Dawley rats
T2 sequence (P70536 1-388): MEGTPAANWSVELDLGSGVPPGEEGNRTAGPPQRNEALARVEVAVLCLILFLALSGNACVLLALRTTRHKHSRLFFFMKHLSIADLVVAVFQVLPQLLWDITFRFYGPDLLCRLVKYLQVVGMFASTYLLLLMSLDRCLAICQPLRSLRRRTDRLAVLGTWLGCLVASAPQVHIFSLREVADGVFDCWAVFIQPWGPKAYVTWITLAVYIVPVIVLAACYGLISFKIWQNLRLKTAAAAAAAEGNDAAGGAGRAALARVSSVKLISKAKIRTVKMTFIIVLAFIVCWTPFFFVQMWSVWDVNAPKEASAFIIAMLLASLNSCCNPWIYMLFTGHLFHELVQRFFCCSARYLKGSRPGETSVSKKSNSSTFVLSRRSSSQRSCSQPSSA
Procedure: Oxytocin Receptor Binding
Female Sprague-Dawley rats weighing approximately 200-250 g are injected intramuscularly (i.m.) with 0.3 mg/kg of body weight of diethylstilbestrol (DES). The rats are sacrificed 18 hours later under pentobarbital anesthesia. The uteri are dissected out, cleaned of fat and connective tissues and rinsed in 50 ml of normal saline. The tissue pooled from six rats is homogenized in 50 ml of 0.01 mMTris.HCl, containing 0.5 mM dithiothreitol and 1.0 mM EDTA, adjusted to pH 7.4, using a polytron at setting 6 with three passes of 10 sec each. The homogenate is passed through two (2) layers of cheesecloth and the filtrate centrifuged at 1000×g for 10 min. The clear supernatant is removed and recentrifuged at 165,000×g for 30 min. The resulting pellet containing the oxytocin receptors is resuspended in 50.0 mM Tris.HCl containing 5.0 mM MgCl2 at pH 7.4, to give a protein concentration of 2.5 mg/ml of tissue suspension. This preparation is used in subsequent binding assays with [^3 H]Oxytocin.
Binding of 3,5-[^3 H]Oxytocin ([^3 H]OT) to its receptors is done in microtiter plates using [^3 H]OT, at various concentrations, in an assay buffer of 50.0 mM Tris.HCl, pH 7.4 and containing 5.0 mM MgCl2, and a mixture of protease inhibitors: BSA, 0.1 mg; aprotinin, 1.0 mg; 1,10-phenanthroline, 2.0 mg; […], 10.0 mg; and PMSF, 0.3 mg per 100 ml of buffer solution. Nonspecific binding is determined in the presence of 1.0 uM unlabeled OT. The binding reaction is terminated after 60 min., at 22° C., by rapid filtration through glass fiber filters using a Brandel® cell harvester (Biomedical Research and Development Laboratories, Inc., Gaithersburg, Md.). Competition experiments are conducted at equilibrium using 1.0 nM [^3 H]OT and varying the concentration of the displacing agents. The concentrations of agent displacing 50% of [^3 H]OT at its sites (IC50) are calculated by a computer assisted LUNDON-2 program (LUNDON SOFTWARE INC., Ohio, USA).

[2] = target: T3, Vasopressin V1 Receptor Subtype in Human Platelet Membranes (Homo sapiens, UniProt P37288); assay: Binding to V1 Receptor Subtype in Human Platelet membranes
T3 construct: tissue Hudson Valley Blood Services, Westchester Medical Center, Valhalla, N.Y; host or cells: human platelet membranes from frozen platelet rich plasma
T3 sequence (P37288 whole entry): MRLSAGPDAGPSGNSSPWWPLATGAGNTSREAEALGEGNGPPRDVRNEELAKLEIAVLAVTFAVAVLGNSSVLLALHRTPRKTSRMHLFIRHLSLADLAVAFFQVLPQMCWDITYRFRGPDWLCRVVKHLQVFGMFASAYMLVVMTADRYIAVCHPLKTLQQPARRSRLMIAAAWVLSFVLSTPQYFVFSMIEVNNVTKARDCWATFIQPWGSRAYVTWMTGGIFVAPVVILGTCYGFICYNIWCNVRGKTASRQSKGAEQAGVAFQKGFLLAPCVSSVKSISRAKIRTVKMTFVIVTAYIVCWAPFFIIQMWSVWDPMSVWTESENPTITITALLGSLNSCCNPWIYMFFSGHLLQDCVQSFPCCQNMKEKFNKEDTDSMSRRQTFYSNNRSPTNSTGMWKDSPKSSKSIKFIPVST
Procedure: Radioligand Binding Experiments with Human Platelet Membranes
Platelet Source: Hudson Valley Blood Services, Westchester Medical Center, Valhalla, N.Y.
Platelet Membrane Preparation:
Frozen platelet rich plasma (PRP), received from the Hudson Valley Blood Services are thawed to room temperature. The tubes containing the PRP are centrifuged at 16,000×g for 10 min. at 4° C. and the supernatant fluid discarded. The platelets resuspended in an equal volume of 50.0 mMTris.HCl, pH 7.5 containing 120 mM NaCl and 20.0 mM EDTA. The suspension is recentrifuged at 16,000×g for 10 min. This washing step is repeated one more time. The wash is discarded and the lysed pellets homogenized in low ionic strength buffer of Tris.HCl, 5.0 mM, pH 7.5 containing 5.0 mM EDTA. The homogenate is centrifuged at 39,000×g for 10 min. The resulting pellet is resuspended in Tris.HCl buffer, 70.0 mM, pH 7.5 and recentrifuged at 39,000×g for 10 min. The final pellet is resuspended in 50.0 mM Tris.HCl buffer pH 7.4 containing 120 mM NaCl and 5.0 mM HCl to give 1.0-2.0 mg protein per ml of suspension.
Binding to Vasopressin V1 Receptor Subtype in Human Platelet Membranes:
In wells of a 96 well format microtiter plate, add 100 μl of 50.0 mM Tris.HCl buffer containing 0.2% BSA and a mixture of protease inhibitors (aprotinin, leupeptin etc.). Then add 20 μl of [^3 H]Ligand: (Manning or Arg^8 Vasopressin), to give final concentrations ranging from 0.01 to 10.0 nM. Initiate the binding by adding 80.0 μl of platelet suspension (approx. 100 μg protein). Mix all reagents by pipetting the mixture up and down a few times. Non-specific binding is measured in the presence of 1.0 μM of unlabeled ligand (Manning or Arg^8 Vasopressin). Let the mixture stand undisturbed at room temperature for ninety (90) min. Upon this time, rapidly filter off the incubate under vacuum suction over GF/B filters, using a Brandel® Harvester. Determine the radioactivity caught on the filter disks by the addition of liquid scintillant and counting in a liquid scintillator

T1 sequence (Q00788 whole entry): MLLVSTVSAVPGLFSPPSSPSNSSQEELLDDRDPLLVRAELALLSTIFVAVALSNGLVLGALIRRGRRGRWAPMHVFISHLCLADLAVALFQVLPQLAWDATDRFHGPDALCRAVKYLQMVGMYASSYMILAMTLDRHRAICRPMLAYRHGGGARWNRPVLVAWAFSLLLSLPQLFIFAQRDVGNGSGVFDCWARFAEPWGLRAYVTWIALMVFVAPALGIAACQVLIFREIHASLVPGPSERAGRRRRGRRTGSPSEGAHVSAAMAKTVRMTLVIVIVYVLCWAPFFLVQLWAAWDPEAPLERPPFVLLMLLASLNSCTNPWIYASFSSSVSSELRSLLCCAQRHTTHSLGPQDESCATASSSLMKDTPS

Cc1ccc(F)cc1C(=O)Nc1ccc(C(=O)N2CCC=Cc3sccc32)c(Cl)c1 [Example 184, N-[4-[(5,6-Dihydro-4H-thieno[3,2-b]azepin-4-yl)carbonyl]-3-chlorophenyl]-5-fluoro-2-methylbenzamide]
IC50 [1]: 0.03 µM
inhibition at 10 µM (oxytocin receptors): 76%
IC50 [2]: 1.3 µM
